Each compound was assayed against T1, Autotaxin enzyme (ATX) (Homo sapiens, UniProt Q13822) (assay: In vitro ATX assay (enzymatic ATX inhibition, LPC 14:0 substrate, choline oxidase/HRP absorbance readout)). Conditions: 0.3 mM LPC 14:0, 37° C., 4 hours, absorbance 555 nm.
T1 construct: purchased Echelon Biosciences, Inc. E-4000
Type: biochemical
Outline: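 Human ATX (10 ng/mL as added) in pH 9.0 Tris buffer with NaCl, MgCl2, CoCl2 and Triton X-100 was preincubated with compound for 15 min at 37 °C. LPC 14:0 (0.3 mM final) was then hydrolysed for 4 h at 37 °C. Released choline was detected by choline oxidase/HRP with 4-AAP/TOOS, read after 15 min RT as absorbance at 555 nm, giving banded IC50 values.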

Compound	IC50
O=C(c1cnc(N[C@@H]2Cc3ccc(Cl)cc3C2)nc1)N1CCC12CCOC2 (stereo partly drawn) [Example 132, (2-(((R)-5-Chloro-2,3-dihydro-1H-inden-2-yl)amino)pyrimidin-5-yl)(6-oxa-1-azaspiro[3.4]octan-1-yl)methanone]	< 100 nM
CC1CCN1C(=O)c1cnc(N[C@@H]2Cc3ccc(Cl)cc3C2)nc1 (stereo partly drawn) [Example 133, (2-(((R)-5-Chloro-2,3-dihydro-1H-inden-2-yl)amino)pyrimidin-5-yl)(2-methylazetidin-1-yl)methanone]	< 100 nM
CC1(O)CC2(CCN2C(=O)c2cnc(N[C@@H]3Cc4ccc(Cl)cc4C3)nc2)C1 (stereo partly drawn) [Example 134, (R)-(2-((5-Chloro-2,3-dihydro-1H-inden-2-yl)amino)pyrimidin-5-yl)(6-hydroxy-6-methyl-1-azaspiro[3.3]heptan-1-yl)methanone]	< 100 nM
CC(C)(O)[C@@H]1CCN1C(=O)c1cnc(N[C@@H]2Cc3ccc(Cl)cc3C2)nc1 [Example 135]	< 100 nM
CC(C)(O)[C@H]1CCN1C(=O)c1cnc(N[C@@H]2Cc3ccc(Cl)cc3C2)nc1 [Example 136, (2-(((R)-5-Chloro-2,3-dihydro-1H-inden-2-yl)amino)pyrimidin-5-yl) ((R)-2-(2-hydroxypropan-2-yl)azetidin-1-yl)methanone]	< 100 nM
CS(=O)(=O)c1cc(CNc2ncc(C(=O)N3CCC34COC4)cn2)cc(OC(F)(F)F)c1 [Example 137, (2-((3-(Methylsulfonyl)-5-(trifluoromethoxy)benzyl)amino)pyrimidin-5-yl)(6-oxa-1-azaspiro[3.3]heptan-1-yl)methanone]	≥ 1000 nM
CS(=O)(=O)c1ccc2c(c1)CC(Nc1ncc(C(=O)N3CCC34COC4)cn1)C2 (stereo not shown) [Example 138, (2-((5-(Methylsulfonyl)-2,3-dihydro-1H-inden-2-yl)amino)pyrimidin-5-yl)(6-oxa-1-azaspiro[3.3]heptan-1-yl)methanone]	≥ 1000 nM
N#Cc1cc(CNc2ncc(C(=O)N3CCC34COC4)cn2)cc(OC(F)(F)F)c1 [Example 139, 3-(((5-(6-Oxa-1-azaspiro[3.3]heptane-1-carbonyl)pyrimidin-2-yl)amino)methyl)-5-(trifluoromethoxy)benzonitrile]	100 to 1000 nM
NC(=O)c1cc(CNc2ncc(C(=O)N3CCC34COC4)cn2)cc(OC(F)(F)F)c1 [Example 140, 3-(((5-(6-Oxa-1-azaspiro[3.3]heptane-1-carbonyl)pyrimidin-2-yl)amino)methyl)-5-(trifluoromethoxy)benzamide]	≥ 1000 nM
CC(C)c1cc(CNc2ncc(C(=O)N3CCC34CN(S(C)(=O)=O)C4)cn2)cc(OC(F)(F)F)c1 [Example 151, (2-((3-Isopropyl-5-(trifluoromethoxy)benzyl)amino)pyrimidin-5-yl) (6-(methylsulfonyl)-1,6-diazaspiro[3.3]heptan-1-yl)methanone]	< 100 nM
CS(=O)(=O)N1CC2(CCN2C(=O)c2cnc(NC3Cc4ccc(Cl)cc4C3)nc2)C1 (stereo not shown) [Example 152, (2-((5-Chloro-2,3-dihydro-1H-inden-2-yl)amino)pyrimidin-5-yl)(6-(methylsulfonyl)-1,6-diazaspiro[3.3]heptan-1-yl)methanone]	< 100 nM
CC(=O)N1CC2(CCN2C(=O)c2cnc(NC3Cc4ccc(Cl)cc4C3)nc2)C1 (stereo not shown) [Example 154, 1-(1-(2-((5-Chloro-2,3-dihydro-1H-inden-2-yl)amino)pyrimidine-5-carbonyl)-1,6-diazaspiro[3.3]heptan-6-yl)ethanone]	< 100 nM
O=C(c1cnc(NCc2cc(OC(F)(F)F)cc(N3CCC3)c2)nc1)N1CCC12COC2 [Example 158, (2-((3-(Azetidin-1-yl)-5-(trifluoromethoxy)benzyl)amino)pyrimidin-5-yl)(6-oxa-1-azaspiro[3.3]heptan-1-yl)methanone]	< 100 nM
CCOc1cc(CNc2ncc(C(=O)N3CCC34COC4)cn2)cc(OC(C)C)c1 [Example 159, (2-((3-Ethoxy-5-isopropoxybenzyl)amino)pyrimidin-5-yl) (6-oxa-1-azaspiro[3.3]heptan-1-yl)methanone]	< 100 nM
CCOc1cc(CNc2ncc(C(=O)N3CCC3C(C)(C)O)cn2)cc(OC(C)C)c1 (stereo not shown) [Example 160, (2-((3-Ethoxy-5-isopropoxybenzyl)amino)pyrimidin-5-yl) (2-(2-hydroxypropan-2-yl)azetidin-1-yl)methanone]	< 100 nM
CC(C)Oc1ccc2c(c1)CC(Nc1ncc(C(=O)N3CCC34COC4)cn1)C2 (stereo not shown) [Example 161, (2-((5-Isopropoxy-2,3-dihydro-1H-inden-2-yl)amino)pyrimidin-5-yl)(6-oxa-1-azaspiro[3.3]heptan-1-yl)methanone]	100 to 1000 nM
CCOc1ccc2c(c1)CC(Nc1ncc(C(=O)N3CCC34COC4)cn1)C2 (stereo not shown) [Example 162, (2-((5-Ethoxy-2,3-dihydro-1H-inden-2-yl)amino)pyrimidin-5-yl)(6-oxa-1-azaspiro[3.3]heptan-1-yl)methanone]	100 to 1000 nM

Further lines, results first:

IC50	Compound
< 100 nM	O=C(c1cnc(NCc2cc(OC(F)(F)F)cc(C3CC3)c2)nc1)N1CCC12CNC2 [Example 141, (2-((3-Cyclopropyl-5-(trifluoromethoxy)benzyl)amino)pyrimidin-5-yl)(1,6-diazaspiro[3.3]heptan-1-yl)methanone]
< 100 nM	CN1CC2(CCN2C(=O)c2cnc(NCc3cc(OC(F)(F)F)cc(C4CC4)c3)nc2)C1 [Example 142, (2-((3-Cyclopropyl-5-(trifluoromethoxy)benzyl)amino)pyrimidin-5-yl)(6-methyl-1,6-diazaspiro[3.3]heptan-1-yl)methanone]
< 100 nM	CCN1CC2(CCN2C(=O)c2cnc(NCc3cc(OC(F)(F)F)cc(C4CC4)c3)nc2)C1 [Example 143, (2-((3-Cyclopropyl-5-(trifluoromethoxy)benzyl)amino)pyrimidin-5-yl)(6-ethyl-1,6-diazaspiro[3.3]heptan-1-yl)methanone]
< 100 nM	O=C(c1cnc(NCc2cc(OC(F)(F)F)cc(C3CC3)c2)nc1)N1CCC12CN(C1CCC1)C2 [Example 144, (6-Cyclobutyl-1,6-diazaspiro[3.3]heptan-1-yl)(2-((3-cyclopropyl-5-(trifluoromethoxy)benzyl)amino)pyrimidin-5-yl)methanone]
< 100 nM	O=C(c1cnc(NCc2cc(OC(F)(F)F)cc(C3CC3)c2)nc1)N1CCC12CN(C1COC1)C2 [Example 145, (2-((3-Cyclopropyl-5-(trifluoromethoxy)benzyl)amino)pyrimidin-5-yl) (6-(oxetan-3-yl)-1,6-diazaspiro[3.3]heptan-1-yl)methanone]
< 100 nM	O=C(c1cnc(NCc2cc(OC(F)(F)F)cc(C3CC3)c2)nc1)N1CCC12CN(C1CC1)C2 [Example 146, (2-((3-Cyclopropyl-5-(trifluoromethoxy)benzyl)amino)pyrimidin-5-yl) (6-cyclopropyl-1,6-diazaspiro[3.3]heptan-1-yl)methanone]
< 100 nM	CC(C)N1CC2(CCN2C(=O)c2cnc(NCc3cc(OC(F)(F)F)cc(C4CC4)c3)nc2)C1 [Example 147, (2-((3-Cyclopropyl-5-(trifluoromethoxy)benzyl)amino)pyrimidin-5-yl) (6-isopropyl-1,6-diazaspiro[3.3]heptan-1-yl)methanone]
< 100 nM	O=C(c1cnc(NCc2cc(OC(F)(F)F)cc(C3CC3)c2)nc1)N1CCC12CN(CC(F)(F)F)C2 [Example 148, (2-((3-Cyclopropyl-5-(trifluoromethoxy)benzyl)amino)pyrimidin-5-yl) (6-(2,2,2-trifluoroethyl)-1,6-diazaspiro[3.3]heptan-1-yl)methanone]
< 100 nM	O=C(c1cnc(NCc2cc(OC(F)(F)F)cc(C3CC3)c2)nc1)N1CCC12CN(CC(F)F)C2 [Example 149, (2-((3-Cyclopropyl-5-(trifluoromethoxy)benzyl)amino)pyrimidin-5-yl) (6-(2,2-difluoroethyl)-1,6-diazaspiro[3.3]heptan-1-yl)methanone]
< 100 nM	CS(=O)(=O)CCN1CC2(CCN2C(=O)c2cnc(NCc3cc(OC(F)(F)F)cc(C4CC4)c3)nc2)C1 [Example 150, (2-((3-Cyclopropyl-5-(trifluoromethoxy)benzyl)amino)pyrimidine-5-yl) (6-(2-(methylsulfonyl)ethyl)-1,6-diazaspiro[3.3]heptan-1-yl)methanone]
< 100 nM	CC(=O)N1CC2(CCN2C(=O)c2cnc(NCc3cc(OC(F)(F)F)cc(C4CC4)c3)nc2)C1 [Example 153, 1-(1-(2-((3-Cyclopropyl-5-(trifluoromethoxy)benzyl)amino)pyrimidine-5-carbonyl)-1,6-diazaspiro[3.3]heptan-6-yl)ethanone]
< 100 nM	CN1CCC2(CCN2C(=O)c2cnc(NCc3cc(OC(F)(F)F)cc(C4CC4)c3)nc2)C1 (stereo not shown) [Example 155, (2-((3-Cyclopropyl-5-(trifluoromethoxy)benzyl)amino)pyrimidin-5-yl)(6-methyl-1,6-diazaspiro[3.4]octan-1-yl)methanone]
< 100 nM	CN1CCCC2(CCN2C(=O)c2cnc(NCc3cc(OC(F)(F)F)cc(C4CC4)c3)nc2)C1 (stereo not shown) [Example 156, (2-((3-Cyclopropyl-5-(trifluoromethoxy)benzyl)amino)pyrimidin-5-yl)(6-methyl-1,6-diazaspiro[3.5]nonan-1-yl)methanone]
< 100 nM	CN1CC2(CCCN2C(=O)c2cnc(NCc3cc(OC(F)(F)F)cc(C4CC4)c3)nc2)C1 [Example 157, (2-((3-Cyclopropyl-5-(trifluoromethoxy)benzyl)amino)pyrimidin-5-yl)(2-methyl-2,5-diazaspiro[3.4]octan-5-yl)methanone]
